Results from patent US20240216401A1, “COMBINATION THERAPY BY USING AKR1C3-ACTIVATED COMPOUND WITH IMMUNE CHECKPOINT INHIBITOR” (OBI Pharma, Inc., priority 2021, published 2024).
“And” between values parts separate entries of the source, which are not always exact repeats. Identical values can stand only once. “Also recorded” adds a separate entry of the source.

What was measured:
Assay type in all cases: in vivo, Mus musculus
[1] = system: CD8^+ cytotoxic T cells (CTL) in tumor-infiltrating lymphocytes; experiment: Example 1: flow cytometry, percentage of CTL cells in TILs
Protocol: (§1) Mice were sacrificed by CO2 euthanasia at the end of the study duration, and the connective tissue around tumor was resected. The tumor samples were then removed and weighed. The half tissue was fixed in 10% formaldehyde and then embedded in paraffin; the other half was prepared for the isolation of tumor-infiltrating lymphocytes (TILs).
(§2) The half of mouse tumors were dissected into smaller fragments using scalpels and then digested with a cocktail of collagenase, DNase I, and Hyaluronidase (Collagenase #C5138, DNase I #D5025, Hyaluronidase #H6254, SigmaAldrich) for at least 2 hours.
(§3) Cells were stained with the fluorescently conjugated surface antibodies and incubated for 30 minutes at 4° C., and then resuspended in staining buffer for flow cytometric analysis. Flow cytometry was done using a Navios EX Flow Cytometer (Beckman Coulter). Data were analyzed using the Kaluza Analysis Software (Beckman Coulter).

[2] = Example 1: body weight and mortality of HepG2 tumor bearing humanized mice; details: OBI-3424 1 mg/kg IV, antibody 10 mg/kg IP (20 from Day 15)
Protocol: (§4) Each group contains five mice. The human hepatocellular carcinoma cell line HepG2 were subcutaneously inoculated to the advanced immune deficiency mice. Total of 30 mice were included in this study.
(§5) 3.1. […] The injection was performed using insulin syringe with the dosage of 10 mg/kg (Dosage of injection was changed to 20 mg/kg from Day 15) and injection volume of 10 mL/kg. […] The reference item was administered for G1. The procedure followed the standards of sample administration.
(§6) 3.2. The test item anti-hPD-L1 antibody or reference items were intraperitoneally injected to the mice on Day 8 after the inoculation of tumor cells. The injection was performed using insulin syringe with the dosage of 10 mg/kg (Dosage of injection was changed to 20 mg/kg from Day 15) and injection volume of 10 mL/kg. The test item anti-hPD-L1 was continuously administered on Day 8, 11, 15, 18, 22, 25, 29 and 32 for G4 and G6. The reference item was administered for G1. The procedure followed the standards of sample administration.
(§7) 3.3. […] The injection was performed using insulin syringe with the dosage of 1 mg/kg and injection volume of 5 mL/kg. […] The reference item was administered for G1. The procedure followed the standards of sample administration.
The measurement was performed from the next day of the inoculation. The animal body weights were measured and recorded twice per week.

[3] = system: NK cells in tumor-infiltrating lymphocytes; experiment: Example 1: flow cytometry, percentage of NK cells in TILs; details: individual mice
Protocol: as §1, §2, §3

[4] = system: CD4^+ T helper cells in tumor-infiltrating lymphocytes; experiment: Example 1: flow cytometry, percentage of TH cells in TILs; details: individual mice
Protocol: as §1, §2, §3

HepG2 tumor = experiment: Example 1: tumor volume, tumor weight and TGI in HepG2 tumor bearing humanized mice
Protocol: as §4
2.2. […] The subcutaneous injection volume was […].
as §5, §6, §7
The measurement was performed from the next day of the inoculation. The tumor volumes were measured and recorded twice a week (Mon., Thur.). Tumor volume was calculated by ellipsoid equation according to the records ((major axis×minor axis×minor axis)×(π/6)).
Tumor volumes were used to calculate tumor growth inhibition (TGI) rates according to the following formula: TGI (%)=[1−(Ti−T0)/(Ci−C0)]×100, where Ti and Ci indicate the mean tumor volume in the treatment groups and vehicle group at the end of the experiment (Day 35). Whereas, T0 and C0 indicate the mean tumor volumes in the treatment group and vehicle group at the beginning of the experiment (Day 1).
as §1

[5] = system: PD-L1^+ cells in tumor-infiltrating lymphocytes; experiment: Example 1: flow cytometry, percentage of PD-L1 cells in TILs; details: individual animal
Protocol: as §1, §2, §3

[6] = TILs, flow cytometer, individual mice
[7] = TILs, gate CD45^+CD8^+ cells, individual mice

C[C@H](OP(=O)(N1CC1)N1CC1)c1ccc([N+](=O)[O-])c(Oc2cccc(C(=O)N(C)C)c2)c1 [OBI-3424, (S)-1-(3-(3-N,N-dimethylaminocarbonyl)phenoxyl-4-mtrophenyl)-1-ethyl-N,N′-bis(ethylene)phosphoramidate]
CD8^+ cytotoxic T cells (CTL) population in tumors compared with vehicle (in words) ([1]; Example 1, TILs at sacrifice, flow cytometry): significantly elevated | CD25^+ CTL cells (CD45^+CD8^+ CD25^+) Total % [1, 6]: 0.27% and 0.30% and 0.77% and 0.52% and 0.28% | CTL cells (CD45^+CD8^+) Total % [1, 6]: 20.93% and 12.12% and 21.14% and 45.53% and 36.08% | PD-1^+ CTL cells (CD45^+CD8^+ PD-1^+) Total % [1, 6]: 21.41% and 12.30% and 20.63% and 41.26% and 28.90% | CTL cells (CD45^+CD8^+) CD45^+ Gated % ([1]; TILs, gate CD45^+ cells, individual mice): 49.08% and 66.81% and 72.14% and 74.09% and 57.70% | CD25^+ CTL cells (CD45^+CD8^+ CD25^+) CTL Gated % [1, 7]: 1.27% and 2.48% and 3.64% and 1.13% and 0.78% | PD-1^+ CTL cells (CD45^+CD8^+ PD-1^+) CTL Gated % [1, 7]: 92.13% and 91.25% and 99.25% and 91.79% and 85.06% | CD25^+ CTL cells (CD45^+CD8^+ CD25^+) Cell count ([1]; TILs, individual mice): 0.12 ×10^5 and 0.22 ×10^5 and 0.63 ×10^5 and 0.13 ×10^5 and 0.11 ×10^5 | CTL cells (CD45^+CD8^+) Cell count ([1]; TILs, individual mice): 9.13 ×10^5 and 8.93 ×10^5 and 17.29 ×10^5 and 11.11 ×10^5 and 14.65 ×10^5 | PD-1^+ CTL cells (CD45^+CD8^+ PD-1^+) Cell count ([1]; TILs, individual mice): 9.33 ×10^5 and 9.07 ×10^5 and 16.88 ×10^5 and 10.07 ×10^5 and 11.73 ×10^5 | Body Weight, Mean ([2]; Day 18, group mean): 24.23 g | Body Weight, Mean ([2]; Day 21, group mean): 24.04 g | CD16^+ NK cells (CD45^+CD56^+ CD16^+) Total % ([3]; flow cytometer): 0.39% and 0.21% (2×) and 0.24% and 0.17% | NK cells (CD45^+CD56^+) Total % ([3]; flow cytometer): 2.47% and 1.62% and 1.15% and 2.73% and 1.39% | PD-1^+ NK cells (CD45^+CD56^+PD-1^+) Total % ([3]; flow cytometer): 3.26% and 1.51% and 1.63% and 2.76% and 2.38% | NK cells (CD45^+CD56^+) CD45^+ Gated % ([3]; gate CD45^+ cells): 6.06% and 9.96% and 4.16% and 5.20% and 2.33% | CD16^+ NK cells (CD45^+CD56^+ CD16^+) NK Gated % ([3]; gate CD45^+CD56^+ cells): 15.62% and 12.65% and 20.43% and 7.71% and 11.87% | PD-1^+ NK cells (CD45^+CD56^+PD-1^+) NK Gated % ([3]; gate CD45^+CD56^+ cells): 88.81% and 88.82% and 97.60% and 90.05% and 83.33% | CD16^+ NK cells (CD45^+CD56^+ CD16^+) Cell count [3]: 0.17 ×10^5 and 0.15 ×10^5 and 0.20 ×10^5 and 0.05 ×10^5 and 0.07 ×10^5 | NK cells (CD45^+CD56^+) Cell count [3]: 1.08 ×10^5 and 1.19 ×10^5 and 0.94 ×10^5 and 0.67 ×10^5 and 0.56 ×10^5 | PD-1^+ NK cells (CD45^+CD56^+PD-1^+) Cell count [3]: 1.42 ×10^5 and 1.11 ×10^5 and 1.33 ×10^5 and 0.67 ×10^5 and 0.97 ×10^5 | CD25^+ TH cells (CD45^+CD4^+ CD25^+) Total % ([4]; flow cytometer): 1.06% and 0.68% and 0.82% and 0.52% and 0.53% | PD-1^+ TH cells (CD45^+CD4^+ PD-1^+) Total % ([4]; flow cytometer): 19.45% and 9.29% and 13.77% and 15.00% and 16.75% | TH cells (CD45^+CD4^+) Total % ([4]; flow cytometer): 18.53% and 9.14% and 14.30% and 14.34% and 16.81% | TH cells (CD45^+CD4^+) CD45^+ Gated % ([4]; gate CD45^+ cells): 43.45% and 50.36% and 48.78% and 23.33% and 26.88% | CD25^+ TH cells (CD45^+CD4^+CD25^+) TH Gated % ([4]; gate CD45^+CD4^+ cells): 5.70% and 7.39% and 5.74% and 3.63% and 3.15% | PD-1^+ TH cells (CD45^+CD4^+ PD-1^+) TH Gated % ([4]; gate CD45^+CD4^+ cells): 99.46% and 98.15% and 99.75% and 97.06% and 97.78% | CD25^+ TH cells (CD45^+CD4^+ CD25^+) Cell count [4]: 0.46 ×10^5 and 0.50 ×10^5 and 0.67 ×10^5 and 0.13 ×10^5 and 0.22 ×10^5 | PD-1^+ TH cells (CD45^+CD4^+ PD-1^+) Cell count [4]: 8.48 ×10^5 and 6.85 ×10^5 and 11.26 ×10^5 and 3.66 ×10^5 and 6.80 ×10^5 | TH cells (CD45^+CD4^+) Cell count [4]: 8.08 ×10^5 and 6.74 ×10^5 and 11.70 ×10^5 and 3.50 ×10^5 and 6.82 ×10^5 | Tumor volume, Mean (HepG2 tumor; D 1, group mean, OBI-3424 1 mg/kg IV, antibody 10 mg/kg IP (20 from Day 15)): 397.08 mm^3 | Tumor volume, Mean (HepG2 tumor; D 4, group mean, OBI-3424 1 mg/kg IV, antibody 10 mg/kg IP (20 from Day 15)): 295.20 mm^3 | Tumor volume, Mean (HepG2 tumor; D 7, group mean, OBI-3424 1 mg/kg IV, antibody 10 mg/kg IP (20 from Day 15)): 298.28 mm^3 | Tumor volume, Mean (HepG2 tumor; D 11, group mean, OBI-3424 1 mg/kg IV, antibody 10 mg/kg IP (20 from Day 15)): 344.17 mm^3 | Tumor volume, Mean (HepG2 tumor; D 14, group mean, OBI-3424 1 mg/kg IV, antibody 10 mg/kg IP (20 from Day 15)): 385.09 mm^3 | Tumor volume, Mean (HepG2 tumor; D 18, group mean, OBI-3424 1 mg/kg IV, antibody 10 mg/kg IP (20 from Day 15)): 535.36 mm^3 | Tumor volume, Mean (HepG2 tumor; D 21, group mean, OBI-3424 1 mg/kg IV, antibody 10 mg/kg IP (20 from Day 15)): 627.45 mm^3 | Tumor volume, Mean (HepG2 tumor; D 25, group mean, OBI-3424 1 mg/kg IV, antibody 10 mg/kg IP (20 from Day 15)): 773.19 mm^3 | Tumor volume, Mean (HepG2 tumor; D 28, group mean, OBI-3424 1 mg/kg IV, antibody 10 mg/kg IP (20 from Day 15)): 718.91 mm^3 | Tumor volume, Mean (HepG2 tumor; D 32, group mean, OBI-3424 1 mg/kg IV, antibody 10 mg/kg IP (20 from Day 15)): 643.09 mm^3 | Tumor volume, Mean (HepG2 tumor; D 35, group mean (mean±SEM), OBI-3424 1 mg/kg IV, antibody 10 mg/kg IP (20 from Day 15)): 590.62±164.32 mm^3 and 590.62 mm^3 | Tumor weight, Mean (HepG2 tumor; D 35, group mean, OBI-3424 1 mg/kg IV, antibody 10 mg/kg IP (20 from Day 15)): 274.44 mg | mean tumor volume compared with vehicle (in words) (HepG2 tumor; Day 35, vs vehicle (G1), Student's t-test): Significantly reduced; also recorded: significantly suppressed | effect on tumor growth (conclusion in words) (HepG2 tumor; HepG2 humanized mouse model): efficiently anti-tumor effect | TGI (HepG2 tumor; from mean tumor volumes Day 35 vs Day 1, relative to vehicle, OBI-3424 1 mg/kg IV, antibody 10 mg/kg IP (20 from Day 15)): 83.13% | tumor weight compared with vehicle (in words) (HepG2 tumor; sacrifice Day 36, vs vehicle (G1)): significantly suppressed | CD45^+ cells Cell count (×10^6) [5]: 1.86 ×10^6 and 1.34 ×10^6 and 2.40 ×10^6 and 1.50 ×10^6 and 2.54 ×10^6 | CD45^+ cells Gated % [5]: 58.88% and 28.16% and 40.69% and 79.75% and 79.11% | CD45^+ cells Total % [5]: 42.64% and 18.14% and 29.31% and 61.46% and 62.53% | Total PD-L1^+ cells (PD-L1^+) Cell count (×10^5) [5]: 2.17 ×10^5 and 14.22 ×10^5 and 4.16 ×10^5 and 0.26 ×10^5 and 0.25 ×10^5 | Total PD-L1^+ cells (PD-L1^+), Total % [5]: 4.97% and 19.30% and 5.09% and 1.08% and 0.62% | Total PD-L1^+ cells (PD-L1^+), Total cells Gated % [5]: 5.67% and 24.15% and 6.02% and 1.15% and 0.65% | Total cells Cell count (×10^6) [5]: 3.82 ×10^6 and 5.89 ×10^6 and 6.92 ×10^6 and 2.30 ×10^6 and 3.83 ×10^6 | Total cells Gated % [5]: 87.63% and 79.89% and 84.57% and 94.06% and 94.44% | Total cells Total % [5]: 87.63% and 79.89% and 84.57% and 94.06% and 94.44%
